The values that follow come from patent publication US10695355B2, “Methods for pharmacologic treatment of stroke” (University of Connecticut, priority 2017, dated 2020).

The test system of series [1] is Middle Cerebral Artery occlusion (MCAo) model, male C57B/6 mice. The series can be described thus: Infarct volume after middle cerebral artery occlusion (MCAo) stroke. The format is in vivo. The conditions noted are these: 60 min ischemia, 72 h reperfusion, vs vehicle. The source says: (§1) Middle cerebral artery occlusion and bilateral ovariectomy: We induced focal transient cerebral ischemia by a 60-minute right middle cerebral artery occlusion (MCAo) under isoflurane anesthesia followed by reperfusion for either 3, 15, or 30 days. […] The 15- and 30-day time points represent sub-acute and chronic recovery as discussed in the art. Briefly, we performed a midline ventral neck incision and unilateral right MCAo by advancing a 6.0 silicone rubber-coated monofilament (Doccol Corporation, CA) 10-11 mm from the internal carotid artery bifurcation via an external carotid artery stump. We monitored rectal temperatures with a temperature control system (Fine Science Tools, Canada), maintaining the temperature at approximately 37° C. during surgery with an automatic heating pad. We used laser doppler flowmetry (DRT 4/Moor Instruments Ltd, Devon, UK) to measure cerebral blood flow and to confirm occlusion (reduction to 15% of baseline cerebral blood flow) and reperfusion. All animals were fed with wet mash for one week after surgery to ensure adequate nutrition for chronic endpoints, as animals have rearing deficits after stroke. In sham mice, we performed identical surgeries except the suture was not advanced into the internal carotid artery. For the gonadal hormone-mediated outcome study, we ovariectomized (ovxed) female mice two weeks prior to stroke surgery.
Cresyl violet staining for infarct volume and tissue atrophy analysis: We measured tissue infarct (day 3) or tissue atrophy (day 30) after stroke as described in the art. Briefly, we sacrificed the mice after stroke surgery with an overdose of Avertin (250 mg/kg intraperitoneally, i.p). After blood collection by cardiac puncture, we performed trans-cardiac perfusion on the mice using cold phosphate buffered saline (PBS) followed by 4% paraformaldehyde. Brains were then fixed overnight and placed in cryoprotectant (30% sucrose in PBS) for 72 hours before processing. We then sliced the brains into 30-μm free-floating sections using a freezing microtome; every eighth slice was mounted and stained with cresyl violet. […]

The test system is the same in series [2]. The series can be described thus: Neurological deficit (ND) score after MCAo stroke. The format is in vivo.
From the text: as §1
Neurological deficit score: The neurological deficit (ND) score is a crude assessment of post-stroke behavioral recovery. We recorded ND scores, ranging from 0 to 4, at several time points after stroke. Our standard scoring system was as follows: 0, no deficit; 1, forelimb weakness and torso turning to the ipsilateral side when held by the tail; 2, circling to affected side; 3, unable to bear weight on affected side; and 4, no spontaneous locomotor activity or barrel rolling.
Male C57B/6 (2-3 month old; 22-28 g) mice were used in this experiment. The ischemia duration was 60 minutes, with reperfusion for 72 hours. […]

Series [3] shares this test system. In words: Rotarod test (sensorimotor deficit) after MCAo stroke. It counts as in vivo. Particulars: 0.5 mg/kg p.o./day for 3 days, first dose 4 hour after stroke; reperfusion 30 days, measured weekly; drug vs vehicle. From the text:
(§2) Sensory motor deficit test: We used the open field test (OFT) and rotarod test to measure spontaneous locomotor activity/anxiety-like behavior and motor balance coordination, respectively, at baseline and post-mcao days 2, 7, 14, 21, and 28. As the OFT is a non-stressful test, we performed the OFT prior to the rotarod test, on the same day with one hour difference between tests.
Rotarod test: The rotarod test examines motor coordination in mice. We placed mice on a rotating cylindrical rod accelerating from two to ten rotations per minute, over a span of five minutes. Each subject performed two trials with a 20-minute break between the two trials. We recorded the latency to fall from the rotating rod for each trial (in seconds), and used the mean latency for comparison between groups.
Male C57B/6 (2-3 month old; 22-28 g) mice were used in a Middle Cerebral Artery occlusion (MCAo) model. The ischemia duration was 60 mins and the reperfusion was 30 days. The drug was 5-BDBD- (0.5 mg/kg p.o./day in 1% DMSO and 0.5% methyl cellulose suspension) administered for 3 days. The first dose was given at 4 hour after stroke. Vehicle was 1% DMSO in 0.5% methyl cellulose (n=5 Behaviors were measured weekly using methods described above. (n=7).
In general terms: The rotarod test checks motor coordination on a turning rod.

For series [4] the test system is unchanged. In words: Open field test (exploratory activity, anxiety-like behavior) after MCAo stroke. It counts as in vivo. Particulars: first dose 4 hour after stroke, reperfusion 30 days.
From the text: as §2
Open field test: The OFT is a common measure of exploratory behavior and general activity in rodents, which can be used both qualitatively and quantitatively. Briefly, we placed mice in a corner of a clear acrylic box (16″×16″) and allowed them to explore the box for ten minutes. We quantified locomotor activity as the total number of beam breaks by a computer-operated, open-field photobeam activity system (San Diego Instruments, San Diego, Calif.). We calculated the percentage of beam breaks in the center zone (16/3″×16/3″) compared to the total as a measure of anxiety-like behavior. Importantly, OFT tests can be administered at several time points to view trends without hindrance by habituation.
Male C57B/6 (2-3 month old; 22-28 g) mice were used in a Middle Cerebral Artery occlusion (MCAo) model. The ischemia duration was 60 mins and the reperfusion was 30 days. […] Vehicle was 1% DMSO in 0.5% methyl cellulose (n=5 Behaviors were measured weekly using methods described above. (n=7).

Series [5] in a line: Solubility in water/PBS. The format is physicochemical.
Where [6] appears, read: 0.5 mg/kg p.o./day for 3 days, first dose 4 hour after stroke, cresyl violet.

As for `O=C1CN=C(c2cccc(Br)c2)c2oc3ccccc3c2N1` [5-BDBD, 5-(3-Bromophenyl)-1,3-dihydro-2H-Benzofuro[3,2-e]-1,4-diazepin-2-one], in series [1] (setting [6]), the cortical infarct volume entry was “reduces” and the hemispheric infarct volume entry is listed as “reduces”. Moreover, the “Neurological deficit score measured after 3 days of stroke” value in series [2] (0.5 mg/kg p.o./day for 3 days, first dose 4 hour after stroke, 60 min ischemia, vs vehicle) is on record as “reduces”. Moreover, in series [2] (oral 0.5 mg/kg daily for 5 days beginning on the day of stroke, MCAo 60 minute followed by reperfusion), the “neurological deficit (ND) score” value was “improved significantly”. For the same molecule, the “rotarod test (test for sensorimotor deficit)” value in series [3] is reported as “overall significant difference”. In series [4] (0.5 mg/kg p.o./day for 3 days (acute treatment)), the “post stroke anxiety (% C/P = % time spent in center/time spent in periphery)” value is reported as “reduces post stroke anxiety up to a month”. The total exploratory activity entry in series [4] (0.5 mg/kg p.o./day for 3 days, drug vs vehicle) is reported as “similar”.

For the molecule `O=C1CC(=O)N(c2cccc(-c3noc(=S)[nH]3)c2)c2ccc3ccccc3c2N1` [NP-1815-PX, 5-[3-(5-thioxo-4H-[1,2,4]oxadiazol-3-yl)phenyl]-1H-naphtho[1,2-b][1,4]diazepine-2,4(3H,5H)-dione], the stroke infarct size result in series [1] (0.5-5 mg/kg in 1xPBS via Alzet mini osmotic pump (SC) for 3 days, TTC) was “could reduce”. In series [2] (0.5-5 mg/kg in 1xPBS via Alzet mini osmotic pump (SC) for 3 days, after 3 days of stroke, vs vehicle), the ND score entry is “improve”. In addition, the solubility entry in series [5] was “Water/PBS Soluble”.
